Measurements as given in PubChem BioAssay (NCI).
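Each compound was tested at five concentrations against cells in 96-well plates for 48 hours. TGI: concentration producing complete growth inhibition.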

How the values were obtained:
Assay in all cases: growth of human tumour cells (NCI), 48 h
COLO 205 colon = test system: COLO 205 colon
U251 CNS = test system: U251 CNS
CCRF-CEM leukemia = test system: CCRF-CEM leukemia
SNB-75 CNS = test system: SNB-75 CNS
HL-60(TB) leukemia = test system: HL-60(TB) leukemia
HCT-116 colon = test system: HCT-116 colon
PC-3 prostate = test system: PC-3 prostate
SK-MEL-28 melanoma = test system: SK-MEL-28 melanoma
OVCAR-3 ovarian = test system: OVCAR-3 ovarian
MDA-MB-435 = test system: MDA-MB-435
CAKI-1 renal = test system: CAKI-1 renal
HT29 colon = test system: HT29 colon
NCI-H226 lung = test system: NCI-H226 lung
A498 renal = test system: A498 renal
EKVX NSCLC = test system: EKVX NSCLC

Structure (SMILES) | TGI (COLO 205 colon) [µM] | TGI (U251 CNS) [µM] | TGI (CCRF-CEM leukemia) [µM] | TGI (SNB-75 CNS) [µM] | TGI (HL-60(TB) leukemia) [µM] | TGI (HCT-116 colon) [µM] | TGI (PC-3 prostate) [µM] | TGI (SK-MEL-28 melanoma) [µM] | TGI (OVCAR-3 ovarian) [µM] | TGI (MDA-MB-435) [µM] | TGI (CAKI-1 renal) [µM] | TGI (HT29 colon) [µM] | TGI (NCI-H226 lung) [µM] | TGI (A498 renal) [µM] | TGI (EKVX NSCLC) [µM]
COc1ccc2c(c1)CCc1[nH]c3ccccc3c1CCCC2 | > 10 | > 10 | > 10 | > 10 | > 10 | > 10 | > 10 | > 10 | > 10 | > 10 | > 10 | > 10 | – | – | –
O=C(c1ccco1)N(C(=S)N1CCN(c2ccccn2)CC1)C1CCCCC1 | > 100 | > 100 | > 100 | > 100 | > 100 | > 100 | – | > 100 | > 100 | – | > 100 | > 100 | > 100 | – | –
O=c1oc2ccccc2nc1/C=C(\O)c1ccc([N+](=O)[O-])cc1 | > 100 | > 100 | > 100 | > 100 | – | > 100 | > 100 | – | > 100 | > 100 | > 100 | > 100 | > 100 | > 100 | > 100
CCCN1CN(C(C(=O)N[C@@H]2C(=O)N3C(C(=O)O)=C(C)CSC23)c2ccc(O)cc2)CSC1=S (stereo partly specified) | > 100 | > 100 | > 100 | > 100 | > 100 | > 100 | – | > 100 | > 100 | – | > 100 | > 100 | – | > 100 | > 100
O=C(C[n+]1ccccc1)N=N/C(C(=O)Nc1c(Cl)c(O)c2ccccc2c1O)=C1/C(=O)Oc2cc(O)ccc2C1=O | 10.4 | 45.9 | > 100 | 39.4 | > 100 | 12.1 | 33 | – | 13.2 | – | 18.1 | 15.3 | 25.8 | 57.5 | 29.3
O=[N+]([O-])c1ccc2[nH]ncc2c1Cl | 28.2 | > 100 | > 100 | > 100 | > 100 | 80.4 | 90.7 | > 100 | > 100 | > 100 | – | 77.4 | > 100 | > 100 | 53.8
[N-]=[NH+]CC(=O)OC(COCc1ccccc1)COCc1ccccc1 | > 100 | > 100 | > 100 | – | > 100 | > 100 | > 100 | > 100 | > 100 | > 100 | 86.6 | > 100 | > 100 | > 100 | > 100
O=C(c1cccs1)N(C(=S)N1CCN(c2ccccn2)CC1)C1CCCCC1 | 46.8 | > 100 | > 100 | > 100 | > 100 | > 100 | – | > 100 | > 100 | – | > 100 | > 100 | 73.8 | – | –
CC/C=C/C(=O)CC(O)(C(F)(F)F)C(F)(F)F | > 100 | > 100 | > 100 | > 100 | > 100 | > 100 | – | > 100 | – | > 100 | – | > 100 | > 100 | 89.4 | > 100
O=C(C1C(c2ccccc2)N1C(c1ccccc1)c1ccccc1)C1C(c2ccccc2)N1C(c1ccccc1)c1ccccc1 (stereo unspecified) | – | 71.8 | 22.9 | > 100 | 12 | 15.8 | 53.7 | 36.1 | – | > 100 | – | 30.2 | – | – | > 100
COc1ccc2c(c1)N=C1CSC(c3cccc(Br)c3)N1C2 (stereo unspecified) | 68.7 | 44.3 | – | 38.5 | 29.6 | 28.6 | 38.4 | > 100 | – | 34.5 | 59.3 | 31.9 | 43.5 | – | 33.8
CSC1=N/C(=C\c2ccco2)C(=O)N1CN1CCCCC1 | > 100 | > 100 | – | > 100 | – | > 100 | > 100 | > 100 | > 100 | > 100 | – | > 100 | > 100 | > 100 | > 100
CCCn1c(SCC)c2cc3cc4ccccc4cc3cc2c1-c1nc(F)nc(F)n1 | > 100 | – | > 100 | > 100 | > 100 | > 100 | – | > 100 | > 100 | – | > 100 | > 100 | > 100 | – | > 100
Cn1c(Nc2ccccc2)c(C=Nc2ccccc2)c(=O)n(C)c1=O | – | > 100 | > 100 | – | > 100 | > 100 | > 100 | > 100 | > 100 | > 100 | – | > 100 | – | > 100 | –
O=C(CCc1ccc(O)cc1)NCCc1cccc(OCc2ccccc2)c1 | > 100 | 64.9 | 20.7 | – | 50 | 50.6 | 88.4 | 63.2 | 35.1 | 38.6 | > 100 | 38.4 | 97.8 | > 100 | > 100
COc1ccc(/C=C2\CCCCCC2=O)cc1 | > 100 | > 100 | > 100 | – | – | > 100 | > 100 | > 100 | > 100 | > 100 | > 100 | > 100 | > 100 | > 100 | > 100
O=C1c2ccccc2C2=Nc3ccncc3CN12 | > 100 | > 100 | > 100 | > 100 | > 100 | > 100 | > 100 | > 100 | > 100 | – | > 100 | > 100 | > 100 | – | > 100
Cc1cccc(C)c1NC(=S)NC=C(C(N)=O)C(N)=O | > 100 | > 100 | > 100 | > 100 | – | > 100 | > 100 | > 100 | > 100 | > 100 | > 100 | > 100 | > 100 | > 100 | > 100
